Assay results published in ChEMBL document CHEMBL1201861, “Genomics of Drug Sensitity in Cancer screening data, Wellcome Trust Sanger Institute”.

Tests used:
Assay in all cases: cells
EW-16 = format: functional, cell-based, Homo sapiens; conditions: Homo sapiens, EW-16;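 note: growth inhibition of human EW-16 cells, read out as cell viability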
Description: SANGER: Inhibition of human EW-16 cell growth in a cell viability assay.

KE-37 = format: functional, cell-based, Homo sapiens; conditions: Homo sapiens, KE-37;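 note: growth inhibition of KE-37 cells, read out with a cell viability assay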
Description: SANGER: Inhibition of human KE-37 cell growth in a cell viability assay.

HCE-4 = format: functional, cell-based, Homo sapiens; conditions: Homo sapiens, HCE-4;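 note: cell viability assay measuring inhibition of growth in the human HCE-4 cell line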
Description: SANGER: Inhibition of human HCE-4 cell growth in a cell viability assay.

KG-1 = format: functional, cell-based, Homo sapiens; conditions: Homo sapiens, KG-1;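 note: growth inhibition of KG-1 cells, read out by a cell viability assay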
Description: SANGER: Inhibition of human KG-1 cell growth in a cell viability assay.

KM-H2 = format: functional, cell-based, Homo sapiens; conditions: Homo sapiens, KM-H2;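 note: growth inhibition of KM-H2 cells, read out by a cell viability assay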
Description: SANGER: Inhibition of human KM-H2 cell growth in a cell viability assay.

HD-MY-Z = format: functional, cell-based, Homo sapiens; conditions: Homo sapiens, HD-MY-Z;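 note: growth inhibition of HD-MY-Z cells, read out with a cell viability assay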
Description: SANGER: Inhibition of human HD-MY-Z cell growth in a cell viability assay.

Mo = format: functional, cell-based, Homo sapiens; conditions: Homo sapiens, Mo
Description: SANGER: Inhibition of human Mo-T cell growth in a cell viability assay.

SW 954 = format: functional, cell-based, Homo sapiens; conditions: Homo sapiens, SW 954;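 note: growth inhibition of SW954 human cancer cells, read out as cell viability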
Description: SANGER: Inhibition of human SW954 cell growth in a cell viability assay.

A388 = format: functional, cell-based, Homo sapiens; conditions: Homo sapiens, A388;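 note: growth inhibition of human A388 cells, read out with a cell viability assay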
Description: SANGER: Inhibition of human A388 cell growth in a cell viability assay.

NCI-H209 = format: functional, cell-based, Homo sapiens; conditions: Homo sapiens, NCI-H209;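 note: growth inhibition of human NCI-H209 cells, measured by a cell viability assay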
Description: SANGER: Inhibition of human NCI-H209 cell growth in a cell viability assay.

LU-139 = format: functional, cell-based, Homo sapiens; conditions: Homo sapiens, LU-139
Description: SANGER: Inhibition of human LU-139 cell growth in a cell viability assay.

MEG-01 = format: functional, cell-based, Homo sapiens; conditions: Homo sapiens, MEG-01;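 note: growth inhibition of MEG-01 cells, read out by a cell viability assay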
Description: SANGER: Inhibition of human MEG-01 cell growth in a cell viability assay.

OS-RC-2 = format: functional, cell-based, Homo sapiens; conditions: Homo sapiens, OS-RC-2;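 note: growth inhibition of human OS-RC-2 cells, measured by a cell viability assay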
Description: SANGER: Inhibition of human OS-RC-2 cell growth in a cell viability assay.

no-10 = format: functional, cell-based, Homo sapiens; conditions: Homo sapiens;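 note: growth inhibition of no-10 cells, read out with a cell viability assay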
Description: SANGER: Inhibition of human no-10 cell growth in a cell viability assay.

LB2241-RCC = format: functional, cell-based, Homo sapiens; conditions: Homo sapiens, LB2241-RCC;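 note: cell viability assay measuring how strongly the cultured human renal carcinoma line is prevented from growing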
Description: SANGER: Inhibition of human LB2241-RCC cell growth in a cell viability assay.

LB373-MEL-D = format: functional, cell-based, Homo sapiens; conditions: Homo sapiens, LB373-MEL-D;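 note: growth inhibition of the cell line, read out in a cell viability assay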
Description: SANGER: Inhibition of human LB373-MEL-D cell growth in a cell viability assay.

EKVX = format: functional, cell-based, Homo sapiens; conditions: Homo sapiens, EKVX;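 note: growth inhibition of human EKVX cells, read out with a cell viability assay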
Description: SANGER: Inhibition of human EKVX cell growth in a cell viability assay.

RCC10RGB = format: functional, cell-based, Homo sapiens; conditions: Homo sapiens, RCC10RGB;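 note: growth inhibition of human RCC10RGB cells, read out by a cell viability assay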
Description: SANGER: Inhibition of human RCC10RGB cell growth in a cell viability assay.

NTERA-2-cl-D1 = format: functional, cell-based, Homo sapiens; conditions: Homo sapiens, NTERA-2-cl-D1;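 note: inhibition of cell growth, measured with a cell viability assay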
Description: SANGER: Inhibition of human NTERA-S-cl-D1 cell growth in a cell viability assay.

SF-539 = format: functional, cell-based, Homo sapiens; conditions: Homo sapiens, SF-539;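 note: Read-out is a cell viability assay, with IC50 reflecting inhibition of cell growth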
Description: SANGER: Inhibition of human SF539 cell growth in a cell viability assay.

HL-60 = format: functional, cell-based, Homo sapiens; conditions: Homo sapiens, HL-60;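 note: growth inhibition of human HL-60 cells, read out with a cell viability assay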
Description: SANGER: Inhibition of human HL-60 cell growth in a cell viability assay.

MLMA = format: functional, cell-based, Homo sapiens; conditions: Homo sapiens, MLMA;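 note: growth inhibition of MLMA cells (human), determined through a cell viability readout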
Description: SANGER: Inhibition of human MLMA cell growth in a cell viability assay.

NOS-1 = format: functional, cell-based, Homo sapiens; conditions: Homo sapiens, NOS-1;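 note: growth inhibition of the human NOS-1 cell line, read out with a cell viability assay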
Description: SANGER: Inhibition of human NOS-1 cell growth in a cell viability assay.

MMAC-SF = format: functional, cell-based, Homo sapiens; conditions: Homo sapiens, MMAC-SF;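 note: growth inhibition of human MMAC-SF cells, read out with a cell viability assay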
Description: SANGER: Inhibition of human MMAC-SF cell growth in a cell viability assay.

LU-134-A = format: functional, cell-based, Homo sapiens; conditions: Homo sapiens, LU-134-A
Description: SANGER: Inhibition of human LU-134-A cell growth in a cell viability assay.

RKO = format: functional, cell-based, Homo sapiens; conditions: Homo sapiens, RKO;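 note: growth inhibition of human RKO cells, read out with a cell viability assay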
Description: SANGER: Inhibition of human RKO cell growth in a cell viability assay.

TK-10 = format: functional, cell-based, Homo sapiens; conditions: Homo sapiens, TK-10;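 note: growth inhibition of TK-10 cells, read out in a cell viability assay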
Description: SANGER: Inhibition of human TK10 cell growth in a cell viability assay.

GI-1 = format: functional, cell-based, Homo sapiens; conditions: Homo sapiens, GI-1;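 note: growth inhibition of human GI-1 cells, measured with a cell viability readout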
Description: SANGER: Inhibition of human GI-1 cell growth in a cell viability assay.

PSN1 = format: functional, cell-based, Homo sapiens; conditions: Homo sapiens, PSN1;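 note: suppression of growth of human PSN1 cells, read out by a cell viability assay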
Description: SANGER: Inhibition of human PSN1 cell growth in a cell viability assay.

MC116 = format: functional, cell-based, Homo sapiens; conditions: Homo sapiens, MC116;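 note: growth inhibition of MC116 cells, read out with a cell viability assay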
Description: SANGER: Inhibition of human MC116 cell growth in a cell viability assay.

KS-1 = format: functional, cell-based, Homo sapiens; conditions: Homo sapiens, KS-1;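 note: growth inhibition of KS-1 cells, read out with a cell viability assay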
Description: SANGER: Inhibition of human KS-1 cell growth in a cell viability assay.

NCI-H23 = format: functional, cell-based, Homo sapiens; conditions: Homo sapiens, NCI-H23;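 note: cell viability assay measuring growth inhibition of NCI-H23 cells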
Description: SANGER: Inhibition of human NCI-H23 cell growth in a cell viability assay.

ES5 = format: functional, cell-based, Homo sapiens; conditions: Homo sapiens, ES5;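 note: growth inhibition of human ES5 cells, read out by a cell viability assay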
Description: SANGER: Inhibition of human ES5 cell growth in a cell viability assay.

NCI-H1770 = format: functional, cell-based, Homo sapiens; conditions: Homo sapiens, NCI-H1770;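 note: growth inhibition of NCI-H1770 cells determined with a viability readout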
Description: SANGER: Inhibition of human NCI-H1770 cell growth in a cell viability assay.

SHP77 = format: functional, cell-based, Homo sapiens, SHP-77; conditions: Homo sapiens, SHP77;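 note: growth inhibition of human SHP-77 cells measured by a cell viability assay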
Description: SANGER: Inhibition of human SHP-77 cell growth in a cell viability assay.

DJM-1 = format: functional, cell-based, Homo sapiens; conditions: Homo sapiens, DJM-1;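 note: growth inhibition of human DJM-1 cells, read out by a cell viability assay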
Description: SANGER: Inhibition of human DJM-1 cell growth in a cell viability assay.

COR-L88 = format: functional, cell-based, Homo sapiens; conditions: Homo sapiens, COR-L88;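 note: growth inhibition of COR-L88 cells, read out with a cell viability assay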
Description: SANGER: Inhibition of human COR-L88 cell growth in a cell viability assay.

A4-Fuk = format: functional, cell-based, Homo sapiens; conditions: Homo sapiens, A4-Fuk;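 note: growth inhibition of A4-Fuk cells, read out by a cell viability assay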
Description: SANGER: Inhibition of human A4-Fuk cell growth in a cell viability assay.

NCI-H1838 = format: functional, cell-based, Homo sapiens; conditions: Homo sapiens, NCI-H1838;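 note: growth inhibition of NCI-H1838 cells, determined with a cell viability readout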
Description: SANGER: Inhibition of human NCI-H1838 cell growth in a cell viability assay.

KURAMOCHI = format: functional, cell-based, Homo sapiens; conditions: Homo sapiens, KURAMOCHI;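 note: growth inhibition of KURAMOCHI cells, read out with a cell viability assay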
Description: SANGER: Inhibition of human KURAMOCHI cell growth in a cell viability assay.

ES8 = format: functional, cell-based, Homo sapiens; conditions: Homo sapiens, ES8;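 note: growth inhibition of human ES8 cells, read out with a cell viability assay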
Description: SANGER: Inhibition of human ES8 cell growth in a cell viability assay.

IST-MES1 = format: functional, cell-based, Homo sapiens; conditions: Homo sapiens, IST-MES1;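 note: growth inhibition of IST-MES1 cells, measured with a cell viability assay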
Description: SANGER: Inhibition of human IST-MES1 cell growth in a cell viability assay.

CW-2 = format: functional, cell-based, Homo sapiens; conditions: Homo sapiens, CW-2;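 note: growth inhibition of CW-2 cells, read out by a cell viability assay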
Description: SANGER: Inhibition of human CW-2 cell growth in a cell viability assay.

KINGS-1 = format: functional, cell-based, Homo sapiens; conditions: Homo sapiens, KINGS-1;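 note: cell viability assay measuring suppression of KINGS-1 cell growth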
Description: SANGER: Inhibition of human KINGS-1 cell growth in a cell viability assay.

HCC1187 = format: functional, cell-based, Homo sapiens; conditions: Homo sapiens, HCC1187;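 note: growth inhibition of HCC1187 cells, read out with a cell viability assay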
Description: SANGER: Inhibition of human HCC1187 cell growth in a cell viability assay.

COLO-320-HSR = format: functional, cell-based, Homo sapiens; conditions: Homo sapiens, COLO-320-HSR;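 note: growth inhibition of COLO-320-HSR cells, determined with a cell viability assay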
Description: SANGER: Inhibition of human COLO-320-HSR cell growth in a cell viability assay.

K562 = format: functional, cell-based, Homo sapiens; conditions: Homo sapiens, K562
Description: SANGER: Inhibition of human K-562 cell growth in a cell viability assay.

NCI-H1155 = format: functional, cell-based, Homo sapiens; conditions: Homo sapiens, NCI-H1155;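 note: cell growth inhibition measured by a viability assay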
Description: SANGER: Inhibition of human NCI-H1155 cell growth in a cell viability assay.

MOLT-4 = format: functional, cell-based, Homo sapiens; conditions: Homo sapiens, MOLT-4;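 note: growth inhibition of MOLT-4 cells, determined with a cell viability readout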
Description: SANGER: Inhibition of human MOLT-4 cell growth in a cell viability assay.

COc1cc2ncn(-c3cc(OCc4ccccc4C(F)(F)F)c(C(N)=O)s3)c2cc1OC [GW843682X]
IC50 (EW-16): 13.3 nM
IC50 (KE-37): 4.77 nM
IC50 (HCE-4): 13.9 nM
IC50 (KG-1): > 256 nM
IC50 (KM-H2): 20.5 nM
IC50 (HD-MY-Z): 66.3 nM
IC50 (Mo): > 256 nM
IC50 (SW 954): 18.1 nM
IC50 (A388): 15.2 nM
IC50 (NCI-H209): 225 nM
IC50 (LU-139): 65.6 nM
IC50 (MEG-01): 41.9 nM
IC50 (OS-RC-2): 188 nM
IC50 (no-10): 20.7 nM
IC50 (LB2241-RCC): > 256 nM
IC50 (LB373-MEL-D): 149 nM
IC50 (EKVX): > 256 nM
IC50 (RCC10RGB): > 256 nM
IC50 (NTERA-2-cl-D1): 17.4 nM
IC50 (SF-539): > 256 nM
IC50 (HL-60): 25.2 nM
IC50 (MLMA): 24.9 nM
IC50 (NOS-1): 16.6 nM
IC50 (MMAC-SF): > 256 nM
IC50 (LU-134-A): 119 nM
IC50 (RKO): 17.2 nM
IC50 (TK-10): 90.9 nM
IC50 (GI-1): 7.3 nM
IC50 (PSN1): 5.83 nM
IC50 (MC116): 36.4 nM
IC50 (KS-1): 26.6 nM
IC50 (NCI-H23): > 256 nM
IC50 (ES5): > 256 nM
IC50 (NCI-H1770): > 256 nM
IC50 (SHP77): 57.3 nM
IC50 (DJM-1): 60.6 nM
IC50 (COR-L88): 78.4 nM
IC50 (A4-Fuk): 20.8 nM
IC50 (NCI-H1838): > 256 nM
IC50 (KURAMOCHI): 50.1 nM
IC50 (ES8): 10.5 nM
IC50 (IST-MES1): 159 nM
IC50 (CW-2): > 256 nM
IC50 (KINGS-1): 149 nM
IC50 (HCC1187): 122 nM
IC50 (COLO-320-HSR): 28.1 nM
IC50 (K562): 59.4 nM
IC50 (NCI-H1155): 86.8 nM
IC50 (MOLT-4): 26.9 nM

CS(=O)(=O)c1ccc(C(=O)Nc2ccc(Cl)c(-c3ccccn3)c2)c(Cl)c1 [VISMODEGIB]
IC50 (EW-16): > 10000 nM
IC50 (KE-37): > 10000 nM
IC50 (HCE-4): > 10000 nM
IC50 (KG-1): > 10000 nM
IC50 (KM-H2): > 10000 nM
IC50 (HD-MY-Z): > 10000 nM
IC50 (Mo): > 10000 nM
IC50 (SW 954): > 10000 nM
IC50 (A388): > 10000 nM
IC50 (NCI-H209): > 10000 nM
IC50 (LU-139): > 10000 nM
IC50 (MEG-01): > 10000 nM
IC50 (OS-RC-2): > 10000 nM
IC50 (no-10): > 10000 nM
IC50 (LB2241-RCC): > 10000 nM
IC50 (LB373-MEL-D): > 10000 nM
IC50 (EKVX): > 10000 nM
IC50 (RCC10RGB): > 10000 nM
IC50 (NTERA-2-cl-D1): > 10000 nM
IC50 (SF-539): > 10000 nM
IC50 (HL-60): > 10000 nM
IC50 (MLMA): > 10000 nM
IC50 (NOS-1): > 10000 nM
IC50 (MMAC-SF): > 10000 nM
IC50 (LU-134-A): > 10000 nM
IC50 (RKO): > 10000 nM
IC50 (TK-10): > 10000 nM
IC50 (GI-1): > 10000 nM
IC50 (PSN1): > 10000 nM
IC50 (MC116): > 10000 nM
IC50 (KS-1): > 10000 nM
IC50 (NCI-H23): > 10000 nM
IC50 (ES5): > 10000 nM
IC50 (NCI-H1770): > 10000 nM
IC50 (SHP77): > 10000 nM
IC50 (DJM-1): > 10000 nM
IC50 (A4-Fuk): > 10000 nM
IC50 (NCI-H1838): > 10000 nM
IC50 (KURAMOCHI): > 10000 nM
IC50 (ES8): > 10000 nM
IC50 (IST-MES1): > 10000 nM
IC50 (CW-2): > 10000 nM
IC50 (KINGS-1): > 10000 nM
IC50 (HCC1187): > 10000 nM
IC50 (COLO-320-HSR): > 10000 nM
IC50 (K562): > 10000 nM
IC50 (NCI-H1155): > 10000 nM
IC50 (MOLT-4): > 10000 nM
